Data published in patent US20220117957A1, “TREATMENT METHOD FOR CORONAVIRUS INFECTION” (priority 2020, published 2022).

Assays:
[1] = tested on: SARS-CoV-2; format: in vivo; settings: individuals infected with SARS-CoV-2 treated with Rifampin
[2] = organic solvents; water at acidic pH; cited from earlier work

Question: Which recovery times [1] does the source give for CO[C@H]1/C=C/O[C@@]2(C)Oc3c(C)c(O)c4c(O)c(c(/C=N/N5CCN(C)CC5)c(O)c4c3C2=O)NC(=O)/C(C)=C\C=C\[C@H](C)[C@H](O)[C@@H](C)[C@@H](O)[C@@H](C)[C@H](OC(C)=O)[C@@H]1C [Rifampin] here?
Answer: Its recovery times is “much faster recovery times”.

Question: What about the severity of symptoms [1] of the same compound?
Answer: Its severity of symptoms is “less severe symptoms”.

Question: What about the solubility [2] of the same compound?
Answer: Its solubility is “soluble in organic solvents and in water at acidic pH”.
